SMILES strings stand for the structures.

The source of these data is patent US10335382B2, “Use of hydrogen sulfide synthesis inhibitors for cancer therapy” (THE BOARD OF REGENTS OF THE UNIVERSITY OF TEXAS SYSTEM, priority 2013, dated 2019).

The assay concerns NCM356 cells. Nature of the assay: NCM356 non-malignant colonic epithelial cell proliferation (xCELLigence). Format: cell-based, human. Particulars: AOAA 1 mM. On the procedure: Cellular proliferation assays are conducted in HCT116 CRC cells in vitro, using the Roche XCelligence method. Concentration-response curves with the various AOAA analogs are prepared (concentration range: 1, 3, 10, 100, 300 and 600 μM). AOAA is used as the reference control, which, according to preliminary data, has an IC50 of approximately 300 μM. Control proliferation studies in the non-carcinogenic colonic epithelial cell line NCM356 are used to confirm cancer-cell selectivity. Since the NCM356 cells contain low levels of CBS, based on previous studies it is expect that AOAA (and its prodrugs) will only exert modest antiproliferative effects in these cells. Proliferation-inhibitory effects of the AOAA prodrugs in NCM356 cells indicate CBS-independent pharmacological actions. […]
Cellular migration and invasion assays were performed as described (Chao et al. (1996) Cancer Res. 56:4811-19). […] Migrated and invaded cells were then fixed in Carson's fixative, stained in 0.33% toluidine blue and quantified by visual counting. For the HCT116-EAhy926 co-culture experiment, the cancer cell line was grown to confluence in the bottom wells of the transwell chambers and then endothelial cell migration was assessed (Coletta et al. (2012) Proc Natl Acad Sci USA. 109:9161-66). […]

`NOCC(=O)O` [AOAA, aminooxyacetic acid]: the NCM356 growth result is on record as “did not affect”.
